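Five concentrations, 48 hours, 96-well plates. At the GI50, growth is halved.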 Activity calls are given as the source filed them. Cut-off read from the data, not from the text of the source: active = GI50 up to about 1.1 µM and inactive = higher.
Legend:
Experiment in all cases: DTP human tumour cell line panel, 48 h
Malme-3M = system: Malme-3M
OVCAR-3 = system: OVCAR-3
HL-60 = system: HL-60
CAKI-1 = system: CAKI-1
PC-3 = system: PC-3
U-251 = system: U-251
NCI-H460 = system: NCI-H460
786-0 = system: 786-0
MOLT-4 = system: MOLT-4
HT-29 = system: HT-29
HOP-62 = system: HOP-62
OVCAR-4 = system: OVCAR-4
NCI/ADR-RES = system: NCI/ADR-RES
SK-MEL-2 = system: SK-MEL-2
MDA-N = system: MDA-N
SNB-75 = system: SNB-75
K562 = system: K562
SK-MEL-28 = system: SK-MEL-28
BT-549 = system: BT-549

Compound	GI50 (Malme-3M)	GI50 (OVCAR-3)	GI50 (HL-60)	GI50 (CAKI-1)	GI50 (PC-3)	GI50 (U-251)	GI50 (NCI-H460)	GI50 (786-0)	GI50 (MOLT-4)	GI50 (HT-29)	GI50 (HOP-62)	GI50 (OVCAR-4)	GI50 (NCI/ADR-RES)	GI50 (SK-MEL-2)	GI50 (MDA-N)	GI50 (SNB-75)	GI50 (K562)	GI50 (SK-MEL-28)	GI50 (BT-549)
O=C1CCC(c2ccccc2)(c2ccccc2)CC1	> 100 µM (inactive)	> 100 µM (inactive)	33.5 µM (inactive)	> 100 µM (inactive)	73.6 µM (inactive)	> 100 µM (inactive)	> 100 µM (inactive)	> 100 µM (inactive)	30.6 µM (inactive)	55.5 µM (inactive)	> 100 µM (inactive)	> 100 µM (inactive)	40 µM (inactive)	> 100 µM (inactive)	45.6 µM (inactive)	> 100 µM (inactive)	29.7 µM (inactive)	> 100 µM (inactive)	83.2 µM (inactive)
COC(=O)C1=C(C)NC2=C(C(=O)c3ccccc32)C1c1c[nH]nc1-c1ccccc1 (stereo not given)	25.2 µM (inactive)	48.6 µM (inactive)	39.8 µM (inactive)	63.8 µM (inactive)	52.1 µM (inactive)	72.1 µM (inactive)	51.9 µM (inactive)	> 100 µM (inactive)	24.8 µM (inactive)	24.3 µM (inactive)	64.9 µM (inactive)	54.7 µM (inactive)	42.1 µM (inactive)	33.7 µM (inactive)	51.5 µM (inactive)	13.3 µM (inactive)	> 100 µM (inactive)	49.4 µM (inactive)	> 100 µM (inactive)
Nc1ncnc2c1ccn2C1OC2COP(=O)(O)OC2C1O (stereo not given)	0.27 µM (active)	0.275 µM (active)	< 0.0476 µM (active)	0.0904 µM (active)	0.163 µM (active)	0.31 µM (active)	0.168 µM (active)	0.281 µM (active)	0.681 µM (active)	0.137 µM (active)	0.501 µM (active)	0.174 µM (active)	0.565 µM (active)	0.458 µM (active)	0.379 µM (active)	0.231 µM (active)	0.261 µM (active)	0.515 µM (active)	0.482 µM (active)
Cc1cccc2c1CC(Cc1ccccc1C(=O)O)C2=O (stereo not given)	> 100 µM (inactive)	> 100 µM (inactive)	> 100 µM (inactive)	> 100 µM (inactive)	> 100 µM (inactive)	> 100 µM (inactive)	> 100 µM (inactive)	> 100 µM (inactive)	> 100 µM (inactive)	> 100 µM (inactive)	> 100 µM (inactive)	> 100 µM (inactive)	> 100 µM (inactive)	> 100 µM (inactive)	> 100 µM (inactive)	> 100 µM (inactive)	> 100 µM (inactive)	> 100 µM (inactive)	> 100 µM (inactive)
Cn1c2c(c3c(=O)[nH]ncc31)CCc1ccccc1-2	31.3 µM (inactive)	26.4 µM (inactive)	27 µM (inactive)	32.1 µM (inactive)	28.2 µM (inactive)	33.5 µM (inactive)	16 µM (inactive)	25.4 µM (inactive)	21.8 µM (inactive)	32.6 µM (inactive)	78.5 µM (inactive)	44.7 µM (inactive)	27.4 µM (inactive)	24.6 µM (inactive)	25.9 µM (inactive)	21.2 µM (inactive)	29.8 µM (inactive)	26.7 µM (inactive)	23.8 µM (inactive)
Cn1c2ccccc2c(=NNc2ccc(C(=O)O)cc2)c2ccccc21	21.1 µM (inactive)	16.5 µM (inactive)	14.6 µM (inactive)	21.6 µM (inactive)	14.1 µM (inactive)	11.1 µM (inactive)	16.1 µM (inactive)	19.8 µM (inactive)	11.3 µM (inactive)	13.1 µM (inactive)	18.8 µM (inactive)	12.9 µM (inactive)	23.9 µM (inactive)	19.6 µM (inactive)	17.7 µM (inactive)	19.8 µM (inactive)	6.79 µM (inactive)	26 µM (inactive)	21.6 µM (inactive)
CC[C@@]1(O)C(=O)OCc2c1cc1n(c2=O)Cc2c-1nc1ccccc1c2/C=N\NC(=O)CN	2.76 µM (inactive)	6.9 µM (inactive)	0.145 µM (active)	0.131 µM (active)	4.73 µM (inactive)	0.135 µM (active)	0.042 µM (active)	0.0908 µM (active)	< 0.0316 µM (active)	1.68 µM (inactive)	0.0533 µM (active)	9.46 µM (inactive)	0.726 µM (active)	23.8 µM (inactive)	1.57 µM (inactive)	0.133 µM (active)	0.586 µM (active)	23 µM (inactive)	0.627 µM (active)
O=c1c2ncn(C3CC(O)C(CO)O3)c2nnn1Cc1ccccc1[N+](=O)[O-] (stereo not given)	> 100 µM (inactive)	75 µM (inactive)	57.3 µM (inactive)	> 100 µM (inactive)	> 100 µM (inactive)	> 100 µM (inactive)	> 100 µM (inactive)	> 100 µM (inactive)	29.4 µM (inactive)	> 100 µM (inactive)	> 100 µM (inactive)	> 100 µM (inactive)	> 100 µM (inactive)	4.78 µM (inactive)	> 100 µM (inactive)	> 100 µM (inactive)	> 100 µM (inactive)	> 100 µM (inactive)	> 100 µM (inactive)
CC(=O)c1ccc2c(c1)N(CCCN1CCN(CCO)CC1)c1ccccc1C2	18.2 µM (inactive)	15.5 µM (inactive)	13.8 µM (inactive)	13.6 µM (inactive)	14.3 µM (inactive)	15.8 µM (inactive)	15.8 µM (inactive)	16.9 µM (inactive)	18.4 µM (inactive)	10 µM (inactive)	15.3 µM (inactive)	15.1 µM (inactive)	13.9 µM (inactive)	18.3 µM (inactive)	13 µM (inactive)	16.6 µM (inactive)	13.5 µM (inactive)	11.2 µM (inactive)	14.7 µM (inactive)
CC1CC(N2CCOCC2)=Nc2ccccc2N1C (stereo not given)	56.4 µM (inactive)	> 100 µM (inactive)	> 100 µM (inactive)	> 100 µM (inactive)	> 100 µM (inactive)	> 100 µM (inactive)	> 100 µM (inactive)	> 100 µM (inactive)	95.5 µM (inactive)	> 100 µM (inactive)	> 100 µM (inactive)	> 100 µM (inactive)	> 100 µM (inactive)	> 100 µM (inactive)	> 100 µM (inactive)	0.0392 µM (active)	> 100 µM (inactive)	> 100 µM (inactive)	> 100 µM (inactive)
C=CCN(c1cc(OC)c2[nH]c(C(=O)OCC)c(C)c2c1[N+](=O)[O-])S(C)(=O)=O	15.7 µM (inactive)	23.8 µM (inactive)	15.8 µM (inactive)	34 µM (inactive)	18 µM (inactive)	16.1 µM (inactive)	30.3 µM (inactive)	19 µM (inactive)	12.6 µM (inactive)	18.2 µM (inactive)	35.6 µM (inactive)	32.4 µM (inactive)	23.6 µM (inactive)	25.1 µM (inactive)	18.1 µM (inactive)	15.2 µM (inactive)	15.1 µM (inactive)	43.2 µM (inactive)	22.1 µM (inactive)
O=C1C2C(c3ccccc3)NC(c3ccccc3)C1C(c1ccccc1)NC2c1ccccc1 (stereo not given)	> 100 µM (inactive)	> 100 µM (inactive)	> 100 µM (inactive)	> 100 µM (inactive)	> 100 µM (inactive)	> 100 µM (inactive)	> 100 µM (inactive)	> 100 µM (inactive)	> 100 µM (inactive)	> 100 µM (inactive)	> 100 µM (inactive)	> 100 µM (inactive)	> 100 µM (inactive)	> 100 µM (inactive)	> 100 µM (inactive)	> 100 µM (inactive)	> 100 µM (inactive)	> 100 µM (inactive)	> 100 µM (inactive)
O=C(NC1(c2cc3ccccc3s2)CCCCC1)C1CCC1	> 100 µM (inactive)	> 100 µM (inactive)	> 100 µM (inactive)	> 100 µM (inactive)	> 100 µM (inactive)	> 100 µM (inactive)	> 100 µM (inactive)	> 100 µM (inactive)	> 100 µM (inactive)	> 100 µM (inactive)	> 100 µM (inactive)	97.5 µM (inactive)	> 100 µM (inactive)	> 100 µM (inactive)	> 100 µM (inactive)	46.7 µM (inactive)	> 100 µM (inactive)	66.8 µM (inactive)	> 100 µM (inactive)
CC(C)CCCC(C)[C@H]1CC[C@H]2N/C(=N/c3ccccc3)CCC[C@]12C (stereo not given in full)	2.67 µM (inactive)	2.29 µM (inactive)	1.85 µM (inactive)	2.29 µM (inactive)	2.97 µM (inactive)	1.82 µM (inactive)	1.93 µM (inactive)	1.77 µM (inactive)	1.64 µM (inactive)	0.501 µM (active)	2.52 µM (inactive)	3.56 µM (inactive)	1.68 µM (inactive)	1.67 µM (inactive)	3.03 µM (inactive)	1.88 µM (inactive)	1.33 µM (inactive)	2.09 µM (inactive)	2.9 µM (inactive)
O=C1c2ccsc2C(=O)c2sc(CO)cc21	0.61 µM (active)	1.59 µM (inactive)	0.656 µM (active)	6.47 µM (inactive)	0.126 µM (active)	0.156 µM (active)	1.47 µM (inactive)	0.385 µM (active)	0.524 µM (active)	0.219 µM (active)	0.184 µM (active)	0.167 µM (active)	0.0845 µM (active)	0.0929 µM (active)	< 0.0133 µM (active)	0.0564 µM (active)	0.237 µM (active)	0.0307 µM (active)	0.0182 µM (active)
